Key:
Type in all cases: in vivo, human
[1] = system: serum PICP, serum BSAP, urinary NTX, urinary free deoxypyridinoline; experiment: Example 5 study GHAJ: biochemical markers of bone formation and resorption in men; conditions: for serum PICP peak concentration above baseline: Month 1
Description: (§1) Four hundred thirty seven men with primary osteoporosis were enrolled in the study. Approximately one-third of die patients were randomly assigned to LY333334 40 μg/day plus calcium and vitamin D, one-third of the patients were randomly assigned to LY333334 20 μg/day plus calcium and vitamin D, and one-third of the patients were randomly assigned to placebo plus calcium and vitamin D. • Number of Subjects: • PTH: Male 437, Female 0, Total 437; • LY333334 20 μg: Male: Total 151. • LY333334 40 μg: Male: Total 139. • Placebo: Male: Total 147. • Diagnosis and Inclusion Criteria: The study patients were men with primary osteoporosis, aged 30 to 85 years, inclusive. L-2 to L-4 vertebrae must have been intact without artifacts, crush fracture or other abnormalities which would have interfered with the analysis of the posterior-anterior lumbar spine bone mineral density (BMD) measurement which must have been at least 2.0 SD below that of young, healthy men. […] Patient Demographic and Other Baseline Characteristics

[2] = system: postmenopausal osteoporotic women; experiment: GHAC efficacy trial (intent to treat BMD, fractures); conditions: 20 μg/day, 21 months
Description: • Number of Subjects: • rhPTH(1-34): 1093 enrolled, 848 finished. • Placebo: 544 enrolled, 447 finished. • Diagnosis and Inclusion Criteria: Women ages 30 to 85 years, postmenopausal for a minimum of 5 years, with a minimum of one moderate or two mild atraumatic vertebral fractures. • Dosage and Administration: • Test Product (blinded) • rhPTH(1-34): 20 μg/day, given subcutaneously • rhPTH(1-34): 40 μg/day, given subcutaneously • Reference Therapy (blinded) • Placebo study material for injection • Duration of Treatment: • rhPTH(1-34): 17-23 months (excluding 6-month run-in phase) • Placebo: 17-23 months (excluding 6-month run-in phase) • Criteria for Evaluation: Spine x-ray; serum biological markers (calcium, bone-specific alkaline phosphatase, procollagen I carboxy-terminal propeptide); urine markers (calcium, N-telopeptide, free deoxypyridinoline); 1,25-dihydroxyvitamin D; bone mineral density: spine, hip, wrist, and total body: height; population pharmacokinetics; bone biopsy (selected study sites).
Population pharmacodynamic analyses were undertaken to evaluate the time course of the relationships between efficacy measures and LY333334 dose or LY333334 concentrations. […] As a part of this assessment, a population placebo-response model describing the change in BMD in patients randomly assigned to placebo (supplemented with calcium and vitamin D) was first developed. […]

[3] = system: men with primary osteoporosis; experiment: Example 5 study GHAJ: incident nonvertebral fractures
Description: as §1
Although the incidence of nonvertebral fractures was measured, it was not a specified efficacy endpoint. The number of patients reporting at least one incident nonvertebral fracture is tabulated by fracture location in Table 10 (below). […] At individual body sites, the number of fractures was insufficient for a meaningful statistical analysis.

For `CC[C@H](C)[C@H](NC(=O)[C@H](CCC(=O)O)NC(=O)[C@H](CO)NC(=O)[C@@H](NC(=O)[C@@H](N)CO)C(C)C)C(=O)N[C@@H](CCC(N)=O)C(=O)N[C@@H](CC(C)C)C(=O)N[C@@H](CCSC)C(=O)N[C@@H](Cc1cnc[nH]1)C(=O)N[C@@H](CC(N)=O)C(=O)N[C@@H](CC(C)C)C(=O)NCC(=O)N[C@@H](CCCCN)C(=O)N[C@@H](Cc1cnc[nH]1)C(=O)N[C@@H](CC(C)C)C(=O)N[C@@H](CC(N)=O)C(=O)N[C@@H](CO)C(=O)N[C@@H](CCSC)C(=O)N[C@@H](CCC(=O)O)C(=O)N[C@@H](CCCN=C(N)N)C(=O)N[C@H](C(=O)N[C@@H](CCC(=O)O)C(=O)N[C@@H](Cc1c[nH]c2ccccc12)C(=O)N[C@@H](CC(C)C)C(=O)N[C@@H](CCCN=C(N)N)C(=O)N[C@@H](CCCCN)C(=O)N[C@@H](CCCCN)C(=O)N[C@@H](CC(C)C)C(=O)N[C@@H](CCC(N)=O)C(=O)N[C@@H](CC(=O)O)C(=O)N[C@H](C(=O)N[C@@H](Cc1cnc[nH]1)C(=O)N[C@@H](CC(N)=O)C(=O)N[C@@H](Cc1ccccc1)C(=O)O)C(C)C)C(C)C` [LY333334], the “urinary N-telopeptide and urinary free deoxypyridinoline” value ([1]; 20-μg and 40-μg doses) was “Slightly delayed but significant increases”, the “serum PICP peak concentration above baseline” value ([1]; 20-μg group) was 33.7% and the “increase in serum BSAP concentration from baseline” value ([1]; 20-μg group, Month 12) was 28.8%. For the same compound, the “serum PICP compared with baseline” value ([1]; 20-μg group, Month 12) was “decreased compared with baseline”, the “urinary NTX percent change from baseline, peak” value ([1]; 20-μg group, Month 12) was “approximately 57%” and the “serum PICP peak concentration above baseline” value ([1]; 40-μg group) was 78.0%. The “urinary NTX percent change from baseline, peak” value ([1]; 40-μg group, Month 6) was “approximately 155%”, the “increase in serum BSAP concentration from baseline” value ([1]; 40-μg group, Month 12) was 59.3% and the “serum PICP compared with baseline” value ([1]; 40-μg group, Month 12) was “slightly decreased compared with baseline”. The “urinary NTX over baseline” value ([1]; 40-μg group, Month 12) was “approximately 118%”, the “bone marker levels after discontinuation” value ([1]; closeout visit) was “only serum PICP levels had returned to baseline by the closeout visit” and the “actual increase in femoral neck BMD from intent to treat analyses” value [2] was 2.8%. For the same compound, the “actual increase in spine BMD from intent to treat analyses” value [2] was 9.7%, the “patients with at least one incident nonvertebral fracture: Ankle” value ([3]; 20 μg/day) was 1 and the “patients with at least one incident nonvertebral fracture: Other” value ([3]; 20 μg/day) was 0. For the same compound, the “patients with at least one incident nonvertebral fracture: Radius” value ([3]; 20 μg/day) was 1, the “patients with at least one incident nonvertebral fracture: Ribs” value ([3]; 20 μg/day) was 1 and the “patients with at least one incident nonvertebral fracture: Total Patients” value ([3]; 20 μg/day) was 2. The “patients with at least one incident nonvertebral fracture: Ankle” value ([3]; 40 μg/day) was 0, the “patients with at least one incident nonvertebral fracture: Other” value ([3]; 40 μg/day) was 1 and the “patients with at least one incident nonvertebral fracture: Radius” value ([3]; 40 μg/day) was 0. The “patients with at least one incident nonvertebral fracture: Ribs” value ([3]; 40 μg/day) was 0, the “patients with at least one incident nonvertebral fracture: Total Patients” value ([3]; 40 μg/day) was 1 and the “treatment difference in proportion of patients having at least one incident nonvertebral fracture” value ([3]; placebo, 20 and 40 μg/day, p=0.670) was “no significant treatment difference”.

— US20050255537A1, “Method for monitoring treatment with a parathyroid hormone” (priority 1999, published 2005)
